# Results reported in patent publication EP0298820A1, “Peptide derivatives and their therapeutic application” (INSTITUT NATIONAL DE LA SANTE ET DE LA RECHERCHE MEDICALE …, priority 1987, dated 1989).
# Tested on: tumeur M₄
# Experiment: Inhibition of development of lung metastases (M4 tumour cells injected i.v. with peptide)
# Format: in vivo, souris C57BL/6
# Conditions: injected in tail vein with 10⁵ M₄ cells, lung colonies counted after 15 days, PBS control 117,5 ± 14,4
# Protocol: On a utilisé la tumeur M₄, une sous-lignée obtenue par sélection d'un sarcome induit par le benzopyrène chez la souris C57BL/6 (Mantovani Int. J. Cancer, 22, 741, 1978).
# Les cellules M₄ ont été désagrégées avec de la DNAse et de la collagènase pendant 30 minutes à 37°C. On a lavé les cellules deux fois avec du PBS et on les a remis en suspension dans le même tampon à la concentration de […]. On a injecté lentement dans le veine de la queue de souris C57BL/6 0,2 ml de PBS contenant différentes concentrations de peptide et 10⁵ cellules M₄/souris.
# Au bout de 15 jours on a tué les souris et excisé les poumons, et on les a fixés avec une solution de Bouin. On a compté visuellement les colonies. Les résultats obtenus avec le peptide KQRGDF sont donnés dans le tableau suivant.
substance,measurement,setting,value
"H-KQRGDF-OH [KQRGDF, H-Lys-Gln-Arg-Gly-Asp-Phe-OH]",Nombre de colonie,"0,75 mg/souris","25,3 ± 9,4"
same,Nombre de colonie,"1,5 mg/souris","0,2"
same,Nombre de colonie,"3,0 mg/souris",0
